We go through one sequence from patent US9572862B2, “Methods for promoting lipolysis and oxidation in liver and adipose tissue using catestatin” (The Regents of the University of California, priority 2012, dated 2017).

The conditions of data set [1]: reference (8); cited from earlier work.
The test system of a further data set is Chga-KO mice. As to the kind of experiment: Incorporation and oxidation of 14C-palmitate in vivo. As to conditions: for 14C-palmitate incorporation into lipids: CST 12 days. Here is the method:
FIG. 3. Effects of CST on lipogenesis from fatty acid and fatty acid oxidation in hepatic and adipose tissues. Incorporation of ^14C-palmitate into lipids in adipose (A) and liver (B) in Chga-KO mice after saline or CST treatment (5 μg/g BW, i.p./day) for 12 days. Partial oxidation to acid soluble metabolites (ASM) in adipose tissue (C) and liver (D). Complete oxidation to ^14CO2 in hepatocytes (HepG2) and adipocytes (3T3-L1) after saline or CST treatment (E).
Mice were injected with saline or CST (5 μg/g BW, i.p.; […]) for 12 days. One hr after the final injection, U-^14C-palmitate (5 μCi, 100 μl of 0.2 mM, i.p.) was injected and mice were sacrificed 3 hr later. Liver and adipose tissues (˜100 mg) were homogenized in 0.8 ml 3.5 N perchloric acid and extracted by vortexing in 3 ml of a mixture of methanol and chloroform (2:1, v/v). To the final homogenate, 1.2 ml of 3.5 N perchloric acid was added. The mixture was vortexed and centrifuged. The lower (chloroform) layer contained all the lipids derived from the incorporation of ^14C-palmitate, whereas the upper acidic layer contained partially oxidized acid-soluble metabolites (ASM) of ^14C-palmitate. The lower layer was further fractionated by thin layer chromatography on silica gel plates using hexane: diethyl ether: acetic acid (79:20:1, v/v/v) mixture as the developing solvent. Lipogenesis from palmitate was determined based on the radioactivity of the free palmitic acid band compared to other lipids (phospholipids, triglycerides, diacylglycerol, etc.) on the TLC plate. Complete oxidation of ^14C-palmitate was measured in cultured cells but not in mice.

Another data set concerns phospholipase C (PLC). As to conditions: 3T3-L1 adipocytes. The method, then:
FIG. 5. Regulation of adrenergic signaling by CST as measured by cAMP production, phospholipase C activity, and lipolytic glycerol release. (A) Effects of CST (100 nM, 10 min) on cAMP production in PC-12 and 3T3-L1 cells pretreated with saline or isoproterenol (ISO) (10 μM) for 10 min. (B) Effects of CST on phospholipase C activity in 3T3-L1 adipocytes pretreated with phenylephrine or epinephrine (10 μM for 10 min). (C) Effects of CST on glycerol release from adipocytes pretreated with ISO, phenylephrine (PEP), and phentolamine (PTA) (10 μM for 10 min).

The subject of another data set is CST-KO mice. The experiment in a line: CST supplementation in NCD-fed CST-KO mice. The class given is in vivo. Here is the method:
FIG. 13. Changes in biochemical and physiological parameters in NCD-fed CST-KO mice after CST (5 μg/g BW) supplementation. […] Figures in parentheses indicate number of animals.

Data set [2] relates to PC-12 neuroendocrine cells. The experiment in a line: cAMP production in PC-12 cells. The class given is cell-based. A general note: Cyclic AMP is a second messenger, typically raised through Gs and lowered through Gi signalling.
For a further data set, the system named is DIO mice. As to the kind of experiment: CST administration to DIO mice for 16 days. The class given is in vivo. Here is the method:
FIG. 7. Effects of CST administration to DIO and Ob/Ob mice on food intake, body weight, adipose tissue weight, and lipolysis. CST (5 μg/g BW, i.p./day) or saline was administered to DIO and Ob/Ob mice for 16 days. Food intake for DIO mice (A) and Ob/Ob mice (B) was measured every other day. Percent changes in final body weight and WAT mass (as % of body weight) were determined for DIO (C) and Ob/Ob (D) mice. Plasma glycerol (E) and NEFA (F) were quantified for DIO and Ob/Ob mice at the end of CST treatment.
Adult male (7 month old) WT (31.8±1.2 g) and Chga-KO (39.2±1.5 g) mice in the mixed genetic background (129SvJ×C57BL/6) were studied. Both genotypes were generated from the original founder carrying mixed genotype (50% 129SvJ, 50% C57BL/6) and were maintained by sibling mating. Animals were kept in a 12 hr dark/light cycle and fed standard chow ad libitum. Male C57BL/6 mice, 8 week old, were fed 60% high fat diet (D12492: Research Diets, Inc., New Brunswick) for 16 weeks before using for experiments. Male leptin-deficient (C57BL/6J-Ob/Ob) mice from the Jackson Laboratory were maintained on a standard chow diet. The Institutional Animal Care and Utilization Committee approved all procedures. Chga-KO, DIO and Ob/Ob mice were treated daily with saline or CST (5 μg/g BW, i.p.; 12 days for Chga-KO mice and 16 days for DIO and Ob/Ob mice).
Mice were fasted for 12 hr prior to blood draw. Triglycerides (TG) and non-esterified fatty acids (NEFA) were assayed using kits from Wako Diagnostics (Richmond, Va.). Glycerol was assayed using a kit from Sigma (St Louis, Mo.). Media from the explant cultures and mouse serum were analysed for glycerol and NEFA as a measure of lipolysis. ELISA kits were used to determine plasma levels of leptin, adiponectin (Millipore, Billerica, Mass.) and CST (Bachem, Torrance, Calif.). For CST assay, plasma samples and reference standards were passed through mini C18 columns and the flow-through fractions were assayed. The same kits were used for measurements in culture media.

Where [3] appears, read: CST-KO mice, CST 5 μg/g BW for 8 days.

“Also recorded” adds a separate entry of the source. No end group written: not given here.

With SSMKLSFRARAYGFRGPGPQL [CST], in data set [1], the protease degradation result is given as “susceptible to complete protease degradation”. Moreover, in the data set on Chga-KO mice (adipose tissue), the “palmitate oxidation into ASMs” value was “stimulated” and the “14C-palmitate incorporation into lipids” value is given as “decreased”. For the same sequence, in the data set on Chga-KO mice (liver), the “palmitate oxidation into ASMs” value is “stimulated” and the “14C-palmitate incorporation into lipids” value is “enhanced”. For the same sequence, the “PLC activity, substance by itself” value in the data set on phospholipase C (PLC) is “mildly stimulates PLC”. In addition, the “PLC activation by epinephrine” value in the data set on phospholipase C (PLC) (epinephrine 10 μM 10 min) was “attenuated”. In addition, the “PLC activation by phenylephrine” value in the data set with phospholipase C (PLC) (phenylephrine 10 μM 10 min) is “attenuated”. Further, in the data set with CST-KO mice (setting [3]), the “plasma NEFA” value is “reduced; also recorded: decreased”, the “plasma TG” value is recorded as “reduced; also recorded: decreased”, the plasma catecholamine result is reported as “reduced; also recorded: normalized high plasma catecholamines” and the plasma glycerol entry is on record as “increase; also recorded: increased plasma glycerol”. Also, in the data set on CST-KO mice (setting [3]), the plasma insulin entry is reported as “reduced; also recorded: normalized the plasma insulin concentration to the WT level; also recorded: normalized hyperinsulinemia” and the plasma leptin result is on record as “reduced; also recorded: normalized hyperleptinemia”. For the same sequence, in the data set on CST-KO mice (CST-KO mice, CST supplementation), the hypertensive phenotype result was “normalized”. For the same sequence, in the data set on CST-KO mice (NCD-fed CST-KO mice, CST 5 μg/g BW for 8 days), the “glucose tolerance by IP-GTT” value is listed as “restored glucose tolerance; also recorded: improved glucose tolerance; also recorded: improved insulin resistance”. Besides, the “insulin sensitivity / glucose tolerance by IP-ITT” value with CST-KO mice (NCD-fed CST-KO mice, CST supplementation) is recorded as “improved insulin sensitivity; also recorded: restored glucose tolerance; also recorded: improved insulin resistance”. Besides, the “basal or isoproterenol-induced cAMP levels” value in data set [2] is recorded as “did not modulate”. Moreover, in data set [2] (CST 100 nM, ISO 10 μM, 10 min), the cAMP production result is given as “not by CST”. Besides, the food intake entry with DIO mice (CST 5 μg/g BW i.p./day 16 days) is “did not change”. For the same sequence, in the data set with DIO mice (CST 16 days), the “decrease in adipose tissue mass” value is recorded as “about 2 g”, the “plasma concentration of NEFA (lipolysis)” value is listed as “increased” and the “plasma concentration of glycerol (lipolysis)” value is “increased”.
